Read-outs that look alike come from different tables or passages of the source.
Assays:
Format in all cases: in vivo
[1] = test system: Botrytis cinerea; experiment: Test E: gray mold, preventive spray on cucumber seedlings; details: for Test E disease control rating: gray mold on cucumber; for Test E disease control rating (100 = 100% disease control, 0 = no disease control): rating relative to controls
Summary of the method: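 Compounds in 3% acetone were suspended with 250 ppm Trem 014 surfactant and sprayed to run-off on cucumber seedlings. B. cinerea spores were inoculated next day, then 48 h saturated humidity at 20° C and 5 days at 20° C. Disease control rated 0–100% versus controls.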

[2] = test system: Phytophthora infestans; details: for Test D disease control rating: tomato late blight; for Test D disease control rating (100 = 100% disease control, 0 = no disease control): rating relative to controls
[3] = test system: Puccinia recondita; experiment: Test B: wheat leaf rust, preventive spray on wheat seedlings; details: for Test B disease control rating: wheat leaf rust; for Test B disease control rating (100 = 100% disease control, 0 = no disease control): rating relative to controls
Summary of the method: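 Wheat seedlings were sprayed to run-off with compound (3% acetone, 250 ppm Trem 014), then inoculated with P. recondita spores the next day. They were held 24 h saturated at 20 °C, then 6 days at 20 °C. Ratings are 0–100% disease control versus controls.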

[4] = test system: Eiysiphe graminis f. sp. tritici; experiment: Test A: wheat powdery mildew, preventive spray on wheat seedlings; details: for Test A disease control rating: wheat powdery mildew; for Test A disease control rating (100 = 100% disease control, 0 = no disease control): rating relative to controls
Summary of the method: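 Compounds (3% acetone, 250 ppm Trem 014) sprayed to run-off on wheat seedlings, inoculated next day with spore dust. Incubated 7 days at 20° C before disease rating, 0–100% control relative to untreated controls.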

[5] = test system: Pyricularia oryzae; details: for Test C disease control rating: rice blast; for Test C disease control rating (100 = 100% disease control, 0 = no disease control): rating relative to controls
[6] = 100 = 100% disease control, 0 = no control, unmarked entries (standard test concentration)
[7] = 100 = 100% disease control, 0 = no control relative to controls, unmarked entries (standard test concentration)
[8] = cucumber seedlings sprayed to run-off, inoculated the following day, unmarked compounds (standard test rate)
[9] = tomato seedlings sprayed to run-off, inoculated the following day, unmarked compounds (standard test rate)
[10] = wheat seedlings sprayed to run-off, inoculated the following day, unmarked compounds (standard test rate)
[11] = rice seedlings sprayed to run-off, inoculated the following day, unmarked compounds (standard test rate)
[12] = tested at 40 ppm, wheat seedlings

SMILES	Test E disease control rating [1, 6] [%]	Test D disease control rating [2, 6] [%]	Test B disease control rating [3, 6] [%]	Test A disease control rating [4, 7] [%]	Test C disease control rating [5, 6] [%]	also measured
Cc1ccc(Cl)c(OC[C@@H](C)NC(=O)C(C#N)C(C)(C)C)c1 (single isomer, unassigned) [15a]	86	92	28	0	97	–
C=CC(C)(CC)C(C#N)C(=O)NC(C)COc1cc(F)ccc1Cl (mixture of isomers) [compound 298]	–	–	–	–	–	Test E disease control rating (100 = 100% disease control, 0 = no disease control) [1, 8]: 0%; Test D disease control rating (100 = 100% disease control, 0 = no disease control) [2, 9]: 99%; Test B disease control rating (100 = 100% disease control, 0 = no disease control) [3, 10]: 0%; Test A disease control rating (100 = 100% disease control, 0 = no disease control) [4, 10]: 62%; Test C disease control rating (100 = 100% disease control, 0 = no disease control) [5, 11]: 99%
CCc1cccc(OCC(C)NC(=O)C2(CC)C(C)C2(Cl)Cl)c1 (centres unmarked) [compound 240]	–	–	–	–	–	Test E disease control rating (100 = 100% disease control, 0 = no disease control) [1, 8]: 0%; Test D disease control rating (100 = 100% disease control, 0 = no disease control) [2, 9]: 96%; Test B disease control rating (100 = 100% disease control, 0 = no disease control) [3, 10]: 0%; Test A disease control rating (100 = 100% disease control, 0 = no disease control) [4, 10]: 63%; Test C disease control rating (100 = 100% disease control, 0 = no disease control) [5, 11]: 94%
Cc1c(Cl)cc(C#N)n1OCC(C)NC(=O)C(C#N)C(C)C(C)(C)C (mixture of isomers) [71a]	0	19	0	0	53	–
C#CC(C)(C)C(C#N)C(=O)NC(C)COc1cc(Cl)ccc1Cl (mixture of isomers) [compound 212]	0	23	0	0	100	–
C[C@H](COc1ccc(F)c(F)c1)NC(=O)C(C#N)C(C)(C)C (single isomer, unassigned) [30b]	0	0	27	77	97	–
C[C@H](COc1ccc(Cl)cc1)NC(=O)C(C#N)C(C)(C)C (single isomer, unassigned) [7d]	6	0	68	62	99	–
CCC1(C(=O)NC(C)CCc2ccccc2)C(C)C1(Cl)Cl (mixture of isomers) [compound 244]	–	–	–	–	–	Test E disease control rating (100 = 100% disease control, 0 = no disease control) [1, 8]: 0%; Test D disease control rating (100 = 100% disease control, 0 = no disease control) [2, 9]: 74%; Test B disease control rating (100 = 100% disease control, 0 = no disease control) [3, 10]: 0%; Test A disease control rating (100 = 100% disease control, 0 = no disease control) [4, 10]: 86%; Test C disease control rating (100 = 100% disease control, 0 = no disease control) [5, 11]: 99%
CC(C=Cc1ccccc1)NC(=O)C(C#N)C(C)(C)C (mixture of isomers) [compound 228]	–	–	–	–	–	Test E disease control rating (100 = 100% disease control, 0 = no disease control) [1, 8]: 47%; Test D disease control rating (100 = 100% disease control, 0 = no disease control) [2, 9]: 7%; Test B disease control rating (100 = 100% disease control, 0 = no disease control) [3, 10]: 0%; Test A disease control rating (100 = 100% disease control, 0 = no disease control) [4, 10]: 95%; Test C disease control rating (100 = 100% disease control, 0 = no disease control) [5, 11]: 52%
CC(COc1ccccc1CC#N)NC(=O)C(C#N)C(C)(C)C (mixture of isomers) [compound 16]	0	48	0	0	97	–
CC(COc1ccccc1)NC(=O)C(C#N)C(C)(C)C (mixture of isomers) [1a]	0	0	0	60	53	–
CCC1(C(=O)NC(C)COc2cc(C(C)(C)C)ccc2C#N)C(C)C1(Cl)Cl (centres unmarked) [compound 248]	–	–	–	–	–	Test E disease control rating (100 = 100% disease control, 0 = no disease control) [1, 8]: 83%; Test D disease control rating (100 = 100% disease control, 0 = no disease control) [2, 9]: 62%; Test B disease control rating (100 = 100% disease control, 0 = no disease control) [3, 10]: 0%; Test A disease control rating (100 = 100% disease control, 0 = no disease control) [4, 10]: 53%; Test C disease control rating (100 = 100% disease control, 0 = no disease control) [5, 11]: 90%
CCC1(C(=O)NC(C)COc2ccc(Cl)cc2)C(C)C1(Cl)Cl (mixture of isomers) [83b]	–	–	–	–	–	Test E disease control rating ([1]; tested at 40 ppm): 0%; Test D disease control rating ([2]; tested at 40 ppm): 0%; Test B disease control rating ([3]; tested at 40 ppm): 0%; Test A disease control rating ([4]; tested at 40 ppm): 52%; Test C disease control rating ([5]; tested at 40 ppm): 53%
CC(COc1c(F)cccc1C#N)NC(=O)C(C#N)C(C)C(C)(C)C (mixture of isomers) [compound 67]	0	92	0	0	0	–
C[C@H](COc1cc(Cl)ccc1Cl)NC(=O)C(C#N)C(C)(C)C (single isomer, unassigned) [33b]	0	80	67	0	100	–
CCC1(C(=O)NC(C)COc2ccc(F)c(F)c2)C(C)C1(Cl)Cl (centres unmarked) [compound 108]	–	–	–	–	–	Test E disease control rating ([1]; tested at 40 ppm): 0%; Test D disease control rating ([2]; tested at 40 ppm): 0%; Test B disease control rating ([3]; tested at 40 ppm): 0%; Test A disease control rating ([4]; tested at 40 ppm): 57%; Test C disease control rating ([5]; tested at 40 ppm): 94%
CCC1(C(=O)NC(C)COc2cc(Cl)cc(Cl)c2Cl)C(C)C1(Cl)Cl (centres unmarked) [compound 116]	–	–	–	–	–	Test E disease control rating ([1]; tested at 40 ppm): 0%; Test D disease control rating ([2]; tested at 40 ppm): 0%; Test B disease control rating ([3]; tested at 40 ppm): 0%; Test A disease control rating ([4]; tested at 40 ppm): 21%; Test C disease control rating ([5]; tested at 40 ppm): 0%
CCC1(C(=O)NC(C)COc2cccc(CF)c2)C(C)C1(Cl)Cl (mixture of isomers) [compound 317]	–	–	–	–	–	Test E disease control rating (100 = 100% disease control, 0 = no disease control) ([1]; tested at 40 ppm, cucumber seedlings): 0%; Test D disease control rating (100 = 100% disease control, 0 = no disease control) ([2]; tested at 40 ppm, tomato seedlings): 19%; Test B disease control rating (100 = 100% disease control, 0 = no disease control) [3, 12]: 0%; Test A disease control rating (100 = 100% disease control, 0 = no disease control) [4, 12]: 57%; Test C disease control rating (100 = 100% disease control, 0 = no disease control) ([5]; tested at 40 ppm, rice seedlings): 85%
C#CC(C)(C)C(C#N)C(=O)NC(C)COc1cc(F)ccc1F (mixture of isomers) [compound 211]	0	76	0	63	100	–
CCC1(C(=O)NC(C)COc2cccc(F)c2F)C(C)C1(Cl)Cl (centres unmarked) [compound 104]	–	–	–	–	–	Test E disease control rating ([1]; tested at 40 ppm): 0%; Test D disease control rating ([2]; tested at 40 ppm): 0%; Test B disease control rating ([3]; tested at 40 ppm): 0%; Test A disease control rating ([4]; tested at 40 ppm): 84%; Test C disease control rating ([5]; tested at 40 ppm): 97%
CCC1(C(=O)NC(C)COn2cc(Cl)cc2C#N)C(C)C1(Cl)Cl (mixture of isomers) [compound 138]	0	13	0	0	53	–
CC(COc1ccc(F)cc1)NC(=O)C(C#N)C(C)(C)C (single isomer, unassigned) [4a]	0	66	67	0	99	–
